Results published in patent US20250057959A1, “PHOSPHANE GOLD(I)-N-HETEROCYCLIC CARBENE COMPLEXES FOR TREATING CANCER” (KING FAHD UNIVERSITY OF PETROLEUM AND MINERALS, priority 2023, published 2025).

Assays:
Type in all cases: cell-based, human
[1] = test system: A2780cis; test: MTT cell viability assay, cisplatin-resistant A2780cis; conditions: for IC50: 72 hours treatment, MTT; for Fold resistance (A2780cis/A2780): IC50 A2780cis/IC50 A2780
Text: Human epithelial ovarian cancer A2780 cell line and its cisplatin-resistant clone A2780cis were obtained from Sigma-Aldrich (Milano, Italy). SKOV3 (HTB-77) cells were from the American Type Culture Collection (ATCC). The two cell lines were selected to reflect the two different stages of OvCa and different sensitivity to cisplatin. A2780 cell lines were derived from the ovarian tumor tissue of an untreated patient, while SKOV3 was from the ascitic fluids (after metastasis). […] Cell lines were cultured in RPMI-1640 medium containing 10% fetal bovine serum (FBS) (Gibco, Thermo Fisher Scientific, U.S.A), 1% (v/v) of penicillin (10,000 units/mL)-streptomycin (10 mg/mL), and 1% (v/v) L-glutamine (200 mM) (all from Sigma- Aldrich) at 37° C. in a 5% CO2 fully humidified atmosphere. […] Cisplatin was included as a reference drug. […] Fold resistance was calculated as the ratio of the IC50 of the A2780cis to that of the parental cell line A2780.

[2] = test system: A2780; test: MTT cell viability assay, A2780; conditions: for IC50: 72 hours treatment, MTT; for Activity compared with cisplatin or auranofin in A2780 cells: comparison of IC50, Table 8
Text: (§1) Human epithelial ovarian cancer A2780 cell line and its cisplatin-resistant clone A2780cis were obtained from Sigma-Aldrich (Milano, Italy). SKOV3 (HTB-77) cells were from the American Type Culture Collection (ATCC). The two cell lines were selected to reflect the two different stages of OvCa and different sensitivity to cisplatin. A2780 cell lines were derived from the ovarian tumor tissue of an untreated patient, while SKOV3 was from the ascitic fluids (after metastasis). Cells were authenticated in the laboratory using PowerPlex 16 HS system (Promega) and GeneMapper ID version 3.2.1 to identify DNA short tandem repeats. Cell lines were cultured in RPMI-1640 medium containing 10% fetal bovine serum (FBS) (Gibco, Thermo Fisher Scientific, U.S.A), 1% (v/v) of penicillin (10,000 units/mL)-streptomycin (10 mg/mL), and 1% (v/v) L-glutamine (200 mM) (all from Sigma- Aldrich) at 37° C. in a 5% CO2 fully humidified atmosphere. A2780cis cells were continuously exposed to 1 μM cisplatin to maintain cisplatin resistance. Adipose-derived stem cells (ADSCs) were purchased from Lonza and maintained in mesenchymal-stem-cell growth medium Bulletkit MSCGM (Lonza, Verviers, Belgium).
(§2) 4.0×10^3/mL A2780, A2780cis, and SKOV3 cells were seeded in 96-well microplates in 100 μL of culture medium. Cells were allowed to adhere for 24 hours and then were treated in triplicate with increasing concentrations of gold compounds (0-1 μM). Cisplatin was included as a reference drug. Cell viability was evaluated using 3-(4,5-dimethylthiazol-2-yl)-2,5-diphenyltetrazolium bromide (MTT) assay (Sigma-Aldrich) after 72 hours of treatment. Half maximal inhibitory concentrations (IC50) were calculated using the CalcuSyn software version 2 (Biosoft, Ferguson, MO, USA). Fold resistance was calculated as the ratio of the IC50 of the A2780cis to that of the parental cell line A2780.

[3] = test system: SKOV3 cells; test: MTT cell viability assay, SKOV3; conditions: 72 hours treatment
Text: as §1, §2

[4] = test system: A2780cis; test: Cell cycle analysis (PI, flow cytometry), A2780cis; conditions: 24 hours
Experimental: (§3) Results were detected by flow cytometry on a BD FACSCanto II flow cytometer. Data were analyzed using BD FACSDiva version 8.0.1 software (BD Biosciences) unless otherwise indicated. To evaluate apoptosis, tumor cells were treated for 48 hours and then stained for 15 minutes with FITC annexin-V (Thermo Fisher Scientific) and 7AAD (BD Pharmingen). […] For B-cell lymphoma/leukemia-2 (Bcl-2) and Bcl-2 associated x protein (Bax) evaluation, cells were fixed and permeabilized using FIX & PERM cell fixation and cell permeabilization kit (Life Technologies). […] The distribution of cells in different cell cycle phases was quantified using ModFit LT 4.0 software (Verity Software House, Topsham, ME, USA).

[5] = test system: SKOV3-MCTSs; test: SKOV3-MCTS spheroid volume
Experimental: To generate single spheroids with defined size, 1.0×10^3/mL SKOV3 cells were seeded 4 days under nonadherent conditions in U-bottom 96-well plates coated twice with 20 mg/mL of poly(2-hydroxyethyl methacrylate) (poly-HEMA; Sigma) in 95% ethanol. Spheroid size was measured at days 0, 3, and 7 after drug treatment initiation using an inverted microscope (Eclipse TS/100, Nikon, Tokyo, Japan) with photomicrographic systems DS camera control unit DS-L2. Spheroid volumes were calculated using the formula (width^2×length×3.14)/6.

[6] = test system: A2780 cells; test: Cell cycle analysis (PI, flow cytometry), A2780; conditions: for Effect on cell cycle phases: A2780, 24 hours, auranofin 0.5 μM (IC50), cisplatin 0.50 μM
Experimental: as §3

[7] = test system: A2780 and A2780cis cells; test: mitROS generation (MitoSOX red), flow cytometry
Experimental: as §3

[8] = test system: A2780 and A2780cis cells; test: Apoptosis by flow cytometry (annexin-V/7AAD, caspase-3,7, BAX, Bcl-2); conditions: 48 hours; complex 6 and auranofin at IC50 and IC75, cisplatin 0.15 μM and 0.50 μM
Experimental: as §3

[9] = test system: A2780 and A2780cis cells; test: DNA double-strand breaks, γ-H2AX western blot
Experimental: Whole-cell lysates were prepared using cold RIPA buffer [150 mM NaCl, 50 mM Tris-HCl (pH 8), 0.1% SDS, 1% Igepal, and 0.5% desoxycholate sodium] containing a protease inhibitor cocktail (Roche Diagnostics S.p.a., Milan, Italy), phosphatase inhibitors 1 mM Na3VO4 and 1 mM NaF (Sigma-Aldrich). Protein concentrations were determined using the BioRad protein assay (Bio-Rad Laboratories, Inc., CA, USA). Equal amounts of proteins were mixed with Laemmli buffer, separated in 4-20% SDS-PAGE (Criterion Precast Gel, BioRad), and blotted onto a nitrocellulose membrane (Amersham, GE Healthcare). Membrane strips were blocked with EveryBilot blocking buffer (Bio-Rad) and incubated at 4° C. overnight with primary antibodies probed with the appropriate antibodies (Table 2) and developed using Immobilon Western chemioluminescent HRP substrate. Images were acquired using a ChemiDoc XRS system (Bio-Rad).

[10] = test system: A2780 cells; test: ROS generation (MitoSOX red), flow cytometry, A2780; conditions: cisplatin 0.50 μM; from 6.4%
Experimental: 2.0×10^5/mL A2780 and A2780cis cells were seeded in 6-well plates in complete medium and treated with complex 6 (0.15 μM and 0.5 μM). Results were detected by flow cytometry on a BD FACSCanto II flow cytometer. Data were analyzed using BD FACSDiva version 8.0.1 software (BD Biosciences) unless otherwise indicated. To evaluate apoptosis, tumor cells were treated for 48 hours and then stained for 15 minutes with FITC annexin-V (Thermo Fisher Scientific) and 7AAD (BD Pharmingen). […] For B-cell lymphoma/leukemia-2 (Bcl-2) and Bcl-2 associated x protein (Bax) evaluation, cells were fixed and permeabilized using FIX & PERM cell fixation and cell permeabilization kit (Life Technologies). For ROS generation, cells were stained with 5 μM MitoSOX red mitochondrial superoxide indicator (ThermoFisher Scientific) in a working solution for 30 minutes at 37° C. Cell cycle analysis was performed after 24 hours treatment with complex 6. Cells were harvested, fixed in cold 70% ethanol for 15 minutes, and stained with propidium iodide (PI) solution ([…] PI, 0.1% NP-40, 100 µg/mL PureLink RNase A, 0.1% sodium citrate) for 1 hour. The distribution of cells in different cell cycle phases was quantified using ModFit LT 4.0 software (Verity Software House, Topsham, ME, USA).

Q: Which results are given for `CC(C)c1cccc(C(C)C)c1-n1ccn(-c2c(C(C)C)cccc2C(C)C)[c]1=[Au+][PH](CC(N)c1ccccc1)(c1ccccc1)c1ccccc1.F[P-](F)(F)(F)(F)F` (stereo not shown) [Complex 4, [Au(IPr)(C20H20NP)] PF6]?
A: IC50 [1]: 1.17 ± 0.15 µM; Fold resistance (A2780cis/A2780) [1]: 1.43; IC50 [2]: 0.82 ± 0.05 µM; Activity compared with cisplatin or auranofin in A2780 cells [2]: more active than cisplatin

Q: Which results are given for `CC[PH](CC)(CC)[Au][S][C@@H]1O[C@H](COC(C)=O)[C@@H](OC(C)=O)[C@H](OC(C)=O)[C@H]1OC(C)=O` [Auranofin, (2,3,4,6-tetra-O-acetyl-L-thio-β-D-glycopyranosato-S-)-(triethylphosphane)gold(I), reference compound]?
A: IC50 [3]: 2.3 µM; IC50 [1]: 1.91 ± 0.22 µM; IC50 ([1]; listed as auranofin): 1.9 µM; Fold resistance (A2780cis/A2780) [1]: 3.7; sub-G0/G1 phase (DNA fragmentation) ([4]; 2.5 μM (IC75)): 1.7%; Effect on cell cycle phases [4]: slightly decreased the G1 phase and increased the S phase; Effect on SKOV3-MCTSs at 1 μM ([5]; 1 μM): did not reduce SKOV3-MCTS volume; Concentration at which SKOV3-MCTS growth inhibition was seen ([5]; 72 hours): higher than 5 μM; sub-G0/G1 phase (DNA fragmentation) ([6]; A2780, 0.8 μM (IC75), 24 hours): 11%; Effect on cell cycle phases [6]: decreased the G1 phase; mitROS generation [7]: induced ROS generation; Apoptosis (annexin-V / 7AAD positive cells) [8]: less active in inducing apoptosis in cisplatin-resistant A2780cis than in A2780 cells; DNA double-strand breaks (γH2AX) [9]: induced; IC50 [2]: 0.51 ± 0.07 µM; IC50 ([2]; listed as auranofin): 0.5 µM

Q: Which results are given for `CC(C)c1cccc(C(C)C)c1-n1ccn(-c2c(C(C)C)cccc2C(C)C)[c]1=[Au+][PH](CCCN)(c1ccccc1)c1ccccc1.F[P-](F)(F)(F)(F)F` [Complex 7, [Au(IPr)(C15H18NP)] PF6]?
A: IC50 [1]: 1.8 ± 0.15 µM; Fold resistance (A2780cis/A2780) [1]: 1.27; IC50 [2]: 1.42 ± 0.12 µM

Q: What does the source list for `CC(C)c1cccc(C(C)C)c1-n1ccn(-c2c(C(C)C)cccc2C(C)C)[c]1=[Au+][PH](CC(N)C(C)(C)C)(c1ccccc1)c1ccccc1.F[P-](F)(F)(F)(F)F` (stereo not shown) [Complex 5, [Au(IPr)(C18H24NP)] PF6]?
A: IC50 [1]: 0.92 ± 0.08 µM; Fold resistance (A2780cis/A2780) [1]: 1.23; IC50 [2]: 0.75 ± 0.07 µM; Activity compared with cisplatin or auranofin in A2780 cells [2]: more active than cisplatin

Q: What does the source list for `N.N.[Cl][Pt][Cl]` [Cisplatin, reference compound]?
A: IC50 [3]: 5.4 µM; IC50 [1]: 10.4 µM; Fold resistance (A2780cis/A2780) [1]: 6.93; ROS generation (positive cells) [10]: 17.4%; Decrease of SKOV3-MCTS growth with respect to control ([5]; 1 μM, 7 days): 16%; Effect on cell cycle phases [6]: slight increase of the G2/M phase; Apoptosis (annexin-V / 7AAD positive cells) [8]: did not induce apoptosis; DNA double-strand breaks (γH2AX) [9]: did not induce; IC50 [2]: 1.5 µM

Q: Which IC50 [1] does the source give for `CC(C)c1cccc(C(C)C)c1-n1ccn(-c2c(C(C)C)cccc2C(C)C)[c]1=[Au+][PH](c1ccccc1)(c1ccccc1)C(c1ccccc1)C(N)c1ccccc1.F[P-](F)(F)(F)(F)F` (stereo not shown) [Complex 3, [Au(IPr)(C26H24NP)] PF6] here?
A: Its IC50 is 1.14 ± 0.1 µM.

Q: What about the “Fold resistance (A2780cis/A2780)” value [1] of the same compound?
A: The value was 1.46.

Q: And the IC50 [2]?
A: The IC50 was 0.78 ± 0.06 µM.

Q: And the “Activity compared with cisplatin or auranofin in A2780 cells” value [2]?
A: Its value is “more active than cisplatin”.

Q: What does the source list for `CC(C)c1cccc(C(C)C)c1-n1ccn(-c2c(C(C)C)cccc2C(C)C)[c]1=[Au+][PH](CCC#N)(CCC#N)c1ccccc1.F[P-](F)(F)(F)(F)F` [Complex 1, [Au(IPr)(C12H13N2P)] PF6]?
A: IC50 [1]: 3.55 ± 0.35 µM; Fold resistance (A2780cis/A2780) [1]: 1.78; IC50 [2]: 2 ± 0.19 µM

Q: Which results are given for `CC(C)c1cccc(C(C)C)c1-n1ccn(-c2c(C(C)C)cccc2C(C)C)[c]1=[Au+][PH](c1ccccc1)(c1ccccc1)[C@@H]1CCCC[C@H]1N.F[P-](F)(F)(F)(F)F` [Complex 2, [Au(IPr)(C18H22NP)] PF6]?
A: IC50 [1]: 0.8 ± 0.04 µM; Fold resistance (A2780cis/A2780) [1]: 1.6; IC50 [2]: 0.5 ± 0.04 µM; Activity compared with cisplatin or auranofin in A2780 cells [2]: more active than cisplatin
